Drawing on the Kinase Knowledgebase extract (Sharma et al. 2016), this text covers IC50 and inhibition for 8 compounds.

The target of assay [1] is MAPK14 (UniProt Q16539). Kind of assay: MAPK14 inhibition (EGFRP).
For assay [2], the target named is MAPK14 (UniProt Q16539). Kind of assay: MAPK14 Inhibition (PHAS-I).
A further assay concerns the target MAPK14 (human) (UniProt Q16539). Kind of assay: Antiproliferation Assay (U937 Cells).
For the next assay, the system named is MAPK14 (Balb/c mice). The assay can be described thus: LPS Induced TNF-alpha Production (Balb/c Mice). Conditions: dose or concentration not given here.

MAPK14, sequence (Q16539 whole entry, looked up): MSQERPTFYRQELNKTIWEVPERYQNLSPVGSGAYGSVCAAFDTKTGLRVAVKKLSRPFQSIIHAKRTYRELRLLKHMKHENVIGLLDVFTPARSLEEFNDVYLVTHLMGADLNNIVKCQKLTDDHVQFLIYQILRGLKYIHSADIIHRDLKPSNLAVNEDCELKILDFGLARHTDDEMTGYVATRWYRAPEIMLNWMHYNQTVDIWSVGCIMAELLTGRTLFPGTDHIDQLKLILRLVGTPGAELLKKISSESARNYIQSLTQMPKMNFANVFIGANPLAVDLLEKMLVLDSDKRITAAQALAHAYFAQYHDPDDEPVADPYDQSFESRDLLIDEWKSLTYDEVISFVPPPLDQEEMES
MAPK14 (human), sequence (Q16539 whole entry, looked up): as above

Turning to `OCCn1cc(-c2ccc(F)cc2)c(-c2ccncc2)n1.OCCn1ncc(-c2ccc(F)cc2)c1-c1ccncc1`, the IC50 is 10 µM against MAPK14 [1], 0.695 µM at MAPK14 [2] and 40 µM at MAPK14 (human).

The compound `CNC(=O)Nc1n[nH]c(-c2ccncc2)c1-c1ccc(F)cc1` came in with an IC50 against MAPK14 (human) of 10 µM.

Turning to `CN(C)CCn1cc(-c2ccc(F)cc2)c(-c2ccncc2)n1.CN(C)CCn1ncc(-c2ccc(F)cc2)c1-c1ccncc1`, the IC50 turned out to be 10 µM on MAPK14 [1], 0.941 µM against MAPK14 [2] and 5 µM at MAPK14 (human).

For `Fc1ccc(-c2cn(CCN3CCOCC3)nc2-c2ccncc2)cc1.Fc1ccc(-c2cnn(CCN3CCOCC3)c2-c2ccncc2)cc1`, the 50% inhibitory concentration (IC50) on MAPK14 [1] was greater than 10 µM; against MAPK14 [2] it was 0.86 µM; against MAPK14 (human), 22 µM.

At MAPK14 (human), `Cn1nc(-c2ccncc2)c(-c2ccc(Cl)cc2)c1N` displayed an IC50 of 10 µM.

In turn, `NS(=O)(=O)Nc1n[nH]c(-c2ccc(F)cc2)c1-c1ccncc1` returned an IC50 at MAPK14 (human) of 10 µM.

With `Cc1n[nH]c(-c2ccncc2)c1-c1ccccc1`, the IC50 at MAPK14 (human) came out at 10 µM. This counts as double-digit micromolar.

For `CN1CCC(n2cc(-c3ccc(F)cc3)c(-c3ccncc3)n2)CC1.CN1CCC(n2ncc(-c3ccc(F)cc3)c2-c2ccncc2)CC1`, the inhibition in the assay with MAPK14 (Balb/c mice) was found to be 32%. The IC50 against MAPK14 [1] amounted to 0.75 µM; against MAPK14 [2], 5.9 µM.

Broadly, the IC50 is the concentration at which inhibition is half-maximal. A word on the inhibition: it is how much of the control response was suppressed. High values mean a strong effect, low ones a weak effect.
